ChEMBL document CHEMBL3885881, “DrugMatrix”

Species on record: Rattus norvegicus
Experiment: DrugMatrix - Regimen: Daily Repeat
Assay type: toxicity, organism-based, Sprague-Dawley
Parameters: regimen Daily Repeat, gender Male, age 6-8 weeks
Details: in vivo, 0 mg/kg, dose level Control, vehicle 100 % SALINE; for ABSOLUTE BASOPHIL / ABSOLUTE EOSINOPHIL / ABSOLUTE LYMPHOCYTE / ABSOLUTE MONOCYTE / ABSOLUTE SEGMENTED NEUTROPHIL / BASOPHIL / EOSINOPHIL / ERYTHROCYTE COUNT / HEMATOCRIT / HEMOGLOBIN / LEUKOCYTE COUNT / LYMPHOCYTE / MEAN CORPUSCULAR HEMOGLOBIN / MEAN CORPUSCULAR HEMOGLOBIN CONCENTRATION / MEAN CORPUSCULAR VOLUME / MONOCYTE / NEUTROPHIL / NUCLEATED RED BLOOD CELLS / PLATELET COUNT: tissue Blood; for ALANINE AMINOTRANSFERASE / ALBUMIN / ALKALINE PHOSPHATASE / ASPARTATE AMINOTRANSFERASE / BLOOD UREA NITROGEN / CARBON DIOXIDE / CHLORIDE / CHOLESTEROL / CREATINE PHOSPHOKINASE / CREATININE / GLUCOSE / LIPASE / PHOSPHORUS / POTASSIUM / SODIUM / TOTAL BILIRUBIN / TOTAL PROTEIN / URIC ACID: tissue Plasma
[1] = po, 72 h, route oral GAVAGE, time 3 day
[2] = po, 120 h, route oral GAVAGE, time 5 day

Compound: COc1cccc2c1C(=O)c1c(O)c3c(c(O)c1C2=O)C[C@@](O)(C(C)=O)C[C@@H]3O[C@H]1C[C@H](N)[C@H](O)[C@H](C)O1 [DAUNORUBICIN]
- ABSOLUTE BASOPHIL (iv, 72 h, time 3 day): 0 CELLS/uL
- ABSOLUTE EOSINOPHIL (iv, 72 h, time 3 day): 21.67 CELLS/uL
- ABSOLUTE LYMPHOCYTE (iv, 72 h, time 3 day): 10193.67 CELLS/uL
- ABSOLUTE MONOCYTE (iv, 72 h, time 3 day): 165.83 CELLS/uL
- ABSOLUTE SEGMENTED NEUTROPHIL (iv, 72 h, time 3 day): 702.17 CELLS/uL
- BASOPHIL (iv, 72 h, time 3 day): 0%
- EOSINOPHIL (iv, 72 h, time 3 day): 0.17%
- ERYTHROCYTE COUNT (iv, 72 h, time 3 day): 5.39 x10E6/uL
- HEMATOCRIT (iv, 72 h, time 3 day): 34.62%
- HEMOGLOBIN (iv, 72 h, time 3 day): 13.8 G/DL
- LEUKOCYTE COUNT (iv, 72 h, time 3 day): 11.08 x10E3/uL
- LYMPHOCYTE (iv, 72 h, time 3 day): 91.83%
- MEAN CORPUSCULAR HEMOGLOBIN (iv, 72 h, time 3 day): 25.68 pg
- MEAN CORPUSCULAR HEMOGLOBIN CONCENTRATION (iv, 72 h, time 3 day): 39.9 G/DL
- MEAN CORPUSCULAR VOLUME (iv, 72 h, time 3 day): 64.37 fL
- MONOCYTE (iv, 72 h, time 3 day): 1.5%
- NEUTROPHIL (iv, 72 h, time 3 day): 6.5%
- NUCLEATED RED BLOOD CELLS (iv, 72 h, time 3 day): 0 /100WBC
- PLATELET COUNT (iv, 72 h, time 3 day): 1202.83 x10E3/uL
- ALANINE AMINOTRANSFERASE (iv, 72 h, time 3 day): 55.5 u/L
- ALBUMIN (iv, 72 h, time 3 day): 4.22 G/DL
- ALKALINE PHOSPHATASE (iv, 72 h, time 3 day): 406.83 u/L
- ASPARTATE AMINOTRANSFERASE (iv, 72 h, time 3 day): 101.5 u/L
- BLOOD UREA NITROGEN (iv, 72 h, time 3 day): 13.5 mg/dL
- CARBON DIOXIDE (iv, 72 h, time 3 day): 30.33 mmol/L
- CHLORIDE (iv, 72 h, time 3 day): 102.17 MEQ/L
- CHOLESTEROL (iv, 72 h, time 3 day): 63.67 mg/dL
- CREATINE PHOSPHOKINASE (iv, 72 h, time 3 day): 732.67 u/L
- CREATININE (iv, 72 h, time 3 day): 0.2 mg/dL
- GLUCOSE (iv, 72 h, time 3 day): 157 mg/dL
- LIPASE (iv, 72 h, time 3 day): 10.83 u/L
- PHOSPHORUS (iv, 72 h, time 3 day): 12.68 mg/dL
- POTASSIUM (iv, 72 h, time 3 day): 5.67 MEQ/L
- SODIUM (iv, 72 h, time 3 day): 144 MEQ/L
- TOTAL BILIRUBIN (iv, 72 h, time 3 day): 0.15 mg/dL
- TOTAL PROTEIN (iv, 72 h, time 3 day): 6.02 G/DL
- URIC ACID (iv, 72 h, time 3 day): 1.55 mg/dL
- ABSOLUTE BASOPHIL (iv, 120 h, time 5 day): 0 CELLS/uL
- ABSOLUTE EOSINOPHIL (iv, 120 h, time 5 day): 17 CELLS/uL
- ABSOLUTE LYMPHOCYTE (iv, 120 h, time 5 day): 11849.17 CELLS/uL
- ABSOLUTE MONOCYTE (iv, 120 h, time 5 day): 69.83 CELLS/uL
- ABSOLUTE SEGMENTED NEUTROPHIL (iv, 120 h, time 5 day): 730.67 CELLS/uL
- BASOPHIL (iv, 120 h, time 5 day): 0%
- EOSINOPHIL (iv, 120 h, time 5 day): 0.17%
- ERYTHROCYTE COUNT (iv, 120 h, time 5 day): 5.93 x10E6/uL
- HEMATOCRIT (iv, 120 h, time 5 day): 37.42%
- HEMOGLOBIN (iv, 120 h, time 5 day): 14.4 G/DL
- LEUKOCYTE COUNT (iv, 120 h, time 5 day): 12.67 x10E3/uL
- LYMPHOCYTE (iv, 120 h, time 5 day): 93.17%
- MEAN CORPUSCULAR HEMOGLOBIN (iv, 120 h, time 5 day): 24.32 pg
- MEAN CORPUSCULAR HEMOGLOBIN CONCENTRATION (iv, 120 h, time 5 day): 38.5 G/DL
- MEAN CORPUSCULAR VOLUME (iv, 120 h, time 5 day): 63.08 fL
- MONOCYTE (iv, 120 h, time 5 day): 0.5%
- NEUTROPHIL (iv, 120 h, time 5 day): 6.17%
- NUCLEATED RED BLOOD CELLS (iv, 120 h, time 5 day): 0 /100WBC
- PLATELET COUNT (iv, 120 h, time 5 day): 1170.5 x10E3/uL
- ALANINE AMINOTRANSFERASE (iv, 120 h, time 5 day): 51 u/L
- ALBUMIN (iv, 120 h, time 5 day): 4.12 G/DL
- ALKALINE PHOSPHATASE (iv, 120 h, time 5 day): 392.67 u/L
- ASPARTATE AMINOTRANSFERASE (iv, 120 h, time 5 day): 81.67 u/L
- BLOOD UREA NITROGEN (iv, 120 h, time 5 day): 16.17 mg/dL
- CARBON DIOXIDE (iv, 120 h, time 5 day): 30.67 mmol/L
- CHLORIDE (iv, 120 h, time 5 day): 100.5 MEQ/L
- CHOLESTEROL (iv, 120 h, time 5 day): 64.83 mg/dL
- CREATINE PHOSPHOKINASE (iv, 120 h, time 5 day): 242.67 u/L
- CREATININE (iv, 120 h, time 5 day): 0.2 mg/dL
- GLUCOSE (iv, 120 h, time 5 day): 186.83 mg/dL
- LIPASE (iv, 120 h, time 5 day): 10.83 u/L
- PHOSPHORUS (iv, 120 h, time 5 day): 11.67 mg/dL
- POTASSIUM (iv, 120 h, time 5 day): 5.51 MEQ/L
- SODIUM (iv, 120 h, time 5 day): 142.55 MEQ/L
- TOTAL BILIRUBIN (iv, 120 h, time 5 day): 0.22 mg/dL
- TOTAL PROTEIN (iv, 120 h, time 5 day): 6.08 G/DL
- URIC ACID (iv, 120 h, time 5 day): 1.85 mg/dL
- ABSOLUTE BASOPHIL [1]: 140 cells/µL
- ABSOLUTE EOSINOPHIL [1]: 43.3 cells/µL
- ABSOLUTE LYMPHOCYTE [1]: 7570 cells/µL
- ABSOLUTE MONOCYTE [1]: 160 cells/µL
- BASOPHIL [1]: 1.47%
- EOSINOPHIL [1]: 0.47%
- ERYTHROCYTE COUNT [1]: 6.68 x10E6/uL
- HEMATOCRIT [1]: 44.33%
- HEMOGLOBIN [1]: 14.43 G/DL
- LEUKOCYTE COUNT [1]: 9.33 x10E3/uL
- LYMPHOCYTE [1]: 81.23%
- MEAN CORPUSCULAR HEMOGLOBIN [1]: 21.67 pg
- MEAN CORPUSCULAR HEMOGLOBIN CONCENTRATION [1]: 32.6 G/DL
- MEAN CORPUSCULAR VOLUME [1]: 66.43 fL
- MONOCYTE [1]: 1.73%
- NEUTROPHIL [1]: 14.7%
- PLATELET COUNT [1]: 1341.67 x10E3/uL
- ALANINE AMINOTRANSFERASE [1]: 31 u/L
- ALBUMIN [1]: 4.03 G/DL
- ALKALINE PHOSPHATASE [1]: 447 u/L
- ASPARTATE AMINOTRANSFERASE [1]: 61.33 u/L
- BLOOD UREA NITROGEN [1]: 15.67 mg/dL
- CARBON DIOXIDE [1]: 43 mmol/L
- CHLORIDE [1]: 103.33 MEQ/L
- CHOLESTEROL [1]: 83.67 mg/dL
- CREATINE PHOSPHOKINASE [1]: 174.33 u/L
- CREATININE [1]: 0.4 mg/dL
- GLUCOSE [1]: 173 mg/dL
- LIPASE [1]: 17.33 u/L
- PHOSPHORUS [1]: 10.27 mg/dL
- POTASSIUM [1]: 6.47 MEQ/L
- SODIUM [1]: 143.67 MEQ/L
- TOTAL BILIRUBIN [1]: 0.37 mg/dL
- TOTAL PROTEIN [1]: 6.63 G/DL
- URIC ACID [1]: 1.03 mg/dL
- ABSOLUTE BASOPHIL [2]: 53.3 cells/µL
- ABSOLUTE EOSINOPHIL [2]: 210 cells/µL
- ABSOLUTE LYMPHOCYTE [2]: 8220 cells/µL
- ABSOLUTE MONOCYTE [2]: 200 cells/µL
- BASOPHIL [2]: 0.53%
- EOSINOPHIL [2]: 2.1%
- ERYTHROCYTE COUNT [2]: 7 x10E6/uL
- HEMATOCRIT [2]: 44%
- HEMOGLOBIN [2]: 14.53 G/DL
- LEUKOCYTE COUNT [2]: 10.44 x10E3/uL
- LYMPHOCYTE [2]: 78.07%
- MEAN CORPUSCULAR HEMOGLOBIN [2]: 20.77 pg
- MEAN CORPUSCULAR HEMOGLOBIN CONCENTRATION [2]: 33 G/DL
- MEAN CORPUSCULAR VOLUME [2]: 62.87 fL
- MONOCYTE [2]: 1.87%
- NEUTROPHIL [2]: 16.8%
- PLATELET COUNT [2]: 1104.33 x10E3/uL
- ALANINE AMINOTRANSFERASE [2]: 31.67 u/L
- ALBUMIN [2]: 3.93 G/DL
- ALKALINE PHOSPHATASE [2]: 394.67 u/L
- ASPARTATE AMINOTRANSFERASE [2]: 65.67 u/L
- BLOOD UREA NITROGEN [2]: 15.67 mg/dL
- CARBON DIOXIDE [2]: 40.67 mmol/L
- CHLORIDE [2]: 104.33 MEQ/L
- CHOLESTEROL [2]: 66.33 mg/dL
- CREATINE PHOSPHOKINASE [2]: 346.67 u/L
- CREATININE [2]: 0.33 mg/dL
- GLUCOSE [2]: 176.67 mg/dL
- LIPASE [2]: 14.33 u/L
- PHOSPHORUS [2]: 11.17 mg/dL
- POTASSIUM [2]: 6.53 MEQ/L
- SODIUM [2]: 146 MEQ/L
